Measured values taken from ChEMBL document CHEMBL1152060, “Pentamidine congeners 1: Synthesis of Cis- and Trans-butamidine analogues as anti-Pneumocystis carinii pneumonia agents” (1993).

Assays:
Rattus norvegicus [1] = experiment: Anti-Pneumocystis carinii Pneumonia activity at intravenous dosage of 10.0 mg/kg/day in rat; format: functional
Rattus norvegicus [2] = experiment: In vivo toxicity […] at intravenous dosage of 10.0 mg/kg/day in rat; format: functional

| SMILES | Control (Rattus norvegicus [1]) | Toxicity (Rattus norvegicus [2]) |
| --- | --- | --- |
| N=C(N)c1ccc(OC/C=C\COc2ccc(C(=N)N)cc2)cc1 | 1.3% | 0 |
| N=C(N)c1ccc(OC/C=C/COc2ccc(C(=N)N)cc2)cc1 | 0.8% | 0 |
| C(=C\COc1ccc(C2=NCCN2)cc1)/COc1ccc(C2=NCCN2)cc1 | 1.5% | 0 |
| N=C(N)c1ccc(OCCCCCOc2ccc(C(=N)N)cc2)cc1 [PENTAMIDINE] | 4.5% | 2 |
| C(=C/COc1ccc(C2=NCCN2)cc1)/COc1ccc(C2=NCCN2)cc1 | 1.4% | 0 |
